{
  "source": "patent US20160022731A1",
  "about": "“[…] NITRIC OXIDE FOR TREATING RESPIRATORY DISEASES” (Advanced Inhalation Therapies (AIT) Ltd., priority 2013, published 2016)",
  "key": {"[1]": {"experiment": "Phase I open label safety study of intermittent inhalation of 160 ppm gNO in healthy adults", "type": "in vivo, human", "excerpt": "10 healthy adult volunteer subjects (5 males, 5 females), aged 20 to 62 years, were enrolled in the study after screening their medical history, a physical examination, pulmonary function tests and blood values. Exclusion criteria included individuals less than 19 years of age, pregnant females and unwilling to practice birth control during the study, diagnosed with pulmonary disease, epistaxis, hemoptysis, methemoglobinemia, organ transplant recipient or receiving antibiotic therapy.\nAfter obtaining informed consent, treatment was initiated within 5 days of enrollment. Subjects were housed in a hospital ward and received 160 ppm gNO for 30 minutes every four hours (Q4 h), five times a day, for five consecutive days by inhalation. Subjects returned for follow-up evaluations 3, 7 and 21 days after the final gNO administration. Subject safety was determined by monitoring vital signs, methemoglobin levels, lung function, blood chemistry, hematology, prothrombin time, inflammatory cytokine/chemokines levels and endothelial activation. These parameters were compared to baseline and at various time-points during and after gNO administration.\nSubjects were administered gNO through a modified disposable mouthpiece to maximize mixing. Inspiration was spontaneously initiated by the subject from a conventional intermittent positive pressure breathing respirator (Mark-7, Carefusion, USA) in fixed flow mode delivering 48 liters per minute (LPM). Flows of gas were verified with a calibrated mass flow meter (TSI, USA). Gaseous nitric oxide (gNO, obtained at INOmax, Ikaria, USA) at a concentration of 800 ppm delivered at a flow of 12 LPM was titrated into a distal delivery port on the mouth piece connected to the respirator during inspiratory phase only (pressure switch). The Mark 7 respirator was supplied by an air/oxygen blender (Bird Sentry, Carefusion, USA) set to deliver 26% oxygen.\nThe levels of gNO, NO2, O2 and methemoglobin were monitored during the administration of gNO. […] Inspiratory NO, NO2 and O2 levels were continuously monitored by sampling from the mouthpiece sample port located about 6 millimeters from the mouth of the subject with an AeroNOx (Pulmonox, AB, Canada) NO, NO2 and O2 electrochemical analyzer. Delivery safety was determined by the number of occasions that NO2 exceeded 5 ppm, gNO exceeding 10% variation and O2 dropping below 20% during gNO administration. […]\nThese parameters were measured continuously during every gNO administration course and for 3.5 hours after the first treatment of the day. Daily serum samples were collected and frozen at −80° C. and the serum […] level was measured using the Griess reagent.\nSubjects underwent full pulmonary function tests (PFT), including lung diffusing capacity (DLCO) by a trained technician utilizing a calibrated pulmonary function system (Jaeger MasterScreen, VIASYS Healthcare, USA) on screening and days 2, 8, 12 and 26. […] Effect of gNO on lung function and DLCO was determined by changes from baseline, treatment days and follow up days.\nGeneral medical examinations were performed by a pulmonary physician on screening and on days 8, 12 and 26 to obtain oxygenation and vital sign measurements. […] Oxygenation was measured with a pulse oximeter (Rad 57, Masimo Corporation, USA) which was used according to manufacturer's guidelines to measure functional oxygen saturation of arterial hemoglobin (SpO2) and heart rate. […]"}, "[2]": {"tested_on": "S. aureus", "settings": "S. aureus on agar; 50-160 ppm gNO, vs medical air; cited from earlier work"}, "[3]": {"tested_on": "P. aeruginosa", "settings": "P. aeruginosa on agar; 50-160 ppm gNO, vs medical air; cited from earlier work"}, "[4]": {"settings": "rats, cited from earlier work"}, "[5]": {"settings": "healthy humans, cited from earlier work"}, "[6]": {"tested_on": "five planktonic species of methicillin resistant S. aureus (MRSA)", "settings": "1,600 ppm hours of gNO; cited from earlier work"}, "[7]": {"tested_on": "bovine respiratory disease", "settings": "cattle; intermittent 30 minute exposures of gNO; cited from earlier work"}, "[8]": {"tested_on": "chronic, non-healing wound", "settings": "topical 200 ppm gNO; within the first three days of treatment; cited from earlier work"}},
  "note": "Read-outs that look alike come from different tables or passages of the source.",
  "data": [
    {"smiles": "[N]=O", "note": "[gNO, nitric oxide]", "values": [
      {"measurement": "accumulative effect on SpMet", "setting": "[1]; after five daily treatments for five consecutive days", "value": "no accumulative or lingering effect on SpMet"},
      {"measurement": "DLCO, FVC, TLC and RV", "setting": "[1]; during the course of the study", "value": "did not change from baseline measurement"},
      {"measurement": "airflow as measured by FEV1 and MMEF", "setting": "[1]; during the course of the study", "value": "did not differ from baseline"},
      {"measurement": "Ang-2 and Ang-2/Ang-1 ratios", "setting": "[1]; plasma", "value": "not affected"},
      {"measurement": "cytokine levels of TNF, IL-6, IL-8, IL-10, IL-1b and IL-12p70", "setting": "[1]; plasma, compared to baseline", "value": "unaffected"},
      {"measurement": "survival (bactericidal trend)", "setting": "[2]", "value": "5-10%"},
      {"measurement": "survival (bactericidal trend)", "setting": "[3]", "value": "5-10%"},
      {"measurement": "mortality", "setting": "[4]; groups of 10, 300 ppm gNO, 6 continuous hours per day", "value": "Six of the animals treated with 300 ppm gNO died during the first 1-2 days"},
      {"measurement": "MetHb levels", "setting": "[4]; 400 ppm gNO", "value": 72.5, "unit": "percents"},
      {"measurement": "MetHb levels", "setting": "[4]; 500 ppm gNO", "value": 67, "unit": "percents"},
      {"measurement": "levels of MetHb", "setting": "[5]; inhalation of gNO at 128 ppm for 3 hours", "value": "> 5", "unit": "%"},
      {"measurement": "levels of MetHb", "setting": "[5]; inhalation of gNO at 512 ppm for 55 minutes", "value": "> 5", "unit": "%"},
      {"measurement": "population of planktonic MRSA strains", "setting": "[6]", "value": "reduction in the population of all five MRSA planktonic strains"},
      {"measurement": "clinical symptoms of bovine respiratory disease", "setting": "[7]", "value": "decrease the clinical symptoms of bovine respiratory disease"},
      {"measurement": "presence of biofilm in the wound", "setting": "[8]", "value": "no longer visibly present"}
    ]}
  ]
}
